Experiments:
[1] = test system: adenosine diphosphate induced platelet aggregation; experiment: Inhibition of platelet aggregation in vitro, adenosine diphosphate induced; format: cell-based, Human; parameters: key: (-): Inhibition; (+): No inhibition
Excerpt: (§1) It is well known that platelet aggregation inhibitors may be useful as anti-thrombotic drugs. Inhibition of platelet aggregation can be conveniently measured in vitro by monitoring changes in optical density and/or light transmission in platelet rich plasma upon addition of suitable aggregating agents such as adenosine diphosphate, epinephrine, thrombin or collagen. Alternatively, platelet aggregation can be measured in vitro using platelet rich plasma obtained at various time intervales from animals given inhibitors by an oral or parenteral route.
(§2) Human […] is incubated with modified Tyrode's solution in a proportion of 40-50% human […]. The test compounds are added at varying concentrations and after 5 minutes incubation, an aggregating agent such as adenosine diphosphate or collagen is added. The change in optical density (light transmission) is monitored by eye and inhibition is recorded as a (-) or lack of inhibition is recorded as a (+). Test compounds are considered active if they inhibit adenosine diphosphate or collagen induced aggregation at a concentration of 25 mcg/ml or less within 5-10 minutes.

[2] = test system: collagen induced platelet aggregation; experiment: Inhibition of platelet aggregation in vitro, collagen induced; format: cell-based, Human; parameters: key: (-): Inhibition; (+): No inhibition
Excerpt: as §1, §2

[3] = test system: mean arterial blood pressure; experiment: Hypotensive activity in anesthetized rats; format: in vivo, Male Wistar strain rats; settings: intravenous infusion over one minute
Description: This procedure is a modification of the technique described by Pike, et al., Prostaglandins, Nobel Symposium 2, Stockholm, June, 1966, pg. 165.
Male Wistar strain rats (Royal Hart Farms) averaging approximately 250 g in weight are fastened to rat boards in a supine position by means of canvas vests and limb ties. The animals are anesthetized with a 900 mg/kg intraperitoneal dose of urethane. The left carotid artery is cannulated with polyethylene 50 tubing to measure arterial blood pressure and the left external jugular vein is cannulated with polyethylene 50 tubing for drug infusion. The animals are allowed to equilibrate for 15-30 minutes. The test compound is infused in 0.5 ml of saline, over a one minute period, at the indicated dose level, using a Harvard model 940 infusion pump and a 6 cc syringe at speed 5. Each drug dose is flushed with 0.4 ml of saline. The mean arterial blood pressure is measured before and after drug administration using a Statham model P23Db pressure transducer and a Brush model 260 recorder. The percent depression in mean arterial blood pressure and the duration of at least a 10% depression induced by representative compounds of this invention are recorded in Table C.

[4] = test system: respiratory depression produced by arachidonate; experiment: Inhibition of respiratory depression produced by arachidonate in mice, in vivo; parameters: species or system Swiss, male, albino mice; settings: 2 hours before 50 mg/kg i.v. sodium arachidonate
Description: Swiss, male, albino mice, weighing about 20 g, are placed in control and drug groups, each with 4-6 mice and fasted. The drug mice are dosed with 50, 25, 10, or 1 mg/kg of a test compound suspended in volumes of 0.5, 0.25, or 0.10 ml of 2% starch solution. Control animals receive starch solution alone. After 2 hours all the mice are challenged with an intravenous dose of 50 mg/kg of sodium arachidonate in a volume of 0.2 ml, by tail vein. The onset of effect and duration of respiratory depression and recovery or death is quantitated. The percent inhibition of respiratory depression is computed from the mean of the drug group and the mean of the control group. Compounds giving 30% or more inhibition at 25 mg/kg or less are considered active.

[5] = test system: bronchospasms elicited by acetylcholine; experiment: Bronchodilator activity (Konzett procedure) against acetylcholine; format: in vivo, guinea pigs; settings: Cavia porcellus; three logarithmic cumulative intravenous doses; spasmogen acetylcholine i.v.
Description: (§3) Bronchodilator activity is determined in guinea pigs against bronchospasms elicited by intravenous injections of 5-hydroxytryptamine, histamine or acetylcholine by the Konzett procedure. [See J. Lulling, P. Lievens, F. El Sayed and J. Prignot, Arzeneimittel-Forschung, 18, 995 (1968).] In Table D, bronchodilator activity for representative compounds of this invention against one or more of the three spasmogenic agents is expressed as an ED50 determined from the results obtained with three logarithmic cumulative intravenous doses.

[6] = test system: bronchospasms elicited by 5-hydroxytryptamine; experiment: Bronchodilator activity (Konzett procedure) against 5-hydroxytryptamine; format: in vivo, guinea pigs; settings: Cavia porcellus; three logarithmic cumulative intravenous doses; spasmogen 5-hydroxytryptamine i.v.
Description: as §3

[7] = test system: bronchospasms elicited by histamine; experiment: Bronchodilator activity (Konzett procedure) against histamine; format: in vivo, guinea pigs; settings: Cavia porcellus; three logarithmic cumulative intravenous doses; spasmogen histamine i.v.
Description: as §3

Structure (SMILES): CCCCC1CCCC1(O)/C=C/C1C(O)CC(=O)C1C/C=C\CCCC(=O)O [nat-15S,16R(and ent-15R,16S) and nat-15R,16S-(and ent-15S,16R)-11α,15-Dihydroxy-9-oxo-15,16-trimethylene-13-trans-5-cis-prostadienoic Acid]
- Inhibition of Platelet Aggregation - In Vitro, Adenosine Diphosphate ([1]; drug concentration 25 μg/ml): (+)
- Inhibition of Platelet Aggregation - In Vitro, Adenosine Diphosphate ([1]; drug concentration 250 μg/ml): (-)
- Inhibition of Platelet Aggregation - In Vitro, Collagen ([2]; drug concentration 250 μg/ml): (+)
- Duration in Minutes of at Least 10% Depression ([3]; dose 1.7 mg/kg): > 10 min
- Percent Depression of Mean Arterial Blood Pressure ([3]; dose 1.7 mg/kg): -47%

Structure (SMILES): O=C(O)CCC/C=C\C[C@H]1C(=O)C[C@@H](O)[C@@H]1/C=C/C1(O)CCCCC1 (relative stereo) [nat(and ent)-11α,15-Dihydroxy-9-oxo-15,16-tetramethylene-17,18,19,20-tetranor-5-cis,13-trans-prostadienoic Acid]
- Inhibition of Platelet Aggregation - In Vitro, Adenosine Diphosphate ([1]; drug concentration 0.25 μg/ml): (+)
- Inhibition of Platelet Aggregation - In Vitro, Adenosine Diphosphate ([1]; drug concentration 2.5 μg/ml): (-)
- Inhibition of Platelet Aggregation - In Vitro, Adenosine Diphosphate ([1]; drug concentration 25 μg/ml): (-)
- Inhibition of Platelet Aggregation - In Vitro, Adenosine Diphosphate ([1]; drug concentration 250 μg/ml): (-)
- Inhibition of Platelet Aggregation - In Vitro, Collagen ([2]; drug concentration 0.25 μg/ml): (+)
- Inhibition of Platelet Aggregation - In Vitro, Collagen ([2]; drug concentration 2.5 μg/ml): (-)
- Inhibition of Platelet Aggregation - In Vitro, Collagen ([2]; drug concentration 25 μg/ml): (-)
- Inhibition of Platelet Aggregation - In Vitro, Collagen ([2]; drug concentration 250 μg/ml): (-)
- Inhibition of Respiratory Depression - In Vivo, Percent Inhibition ([4]; 10 mg/kg): 6%
- Inhibition of Respiratory Depression - In Vivo, Percent Inhibition ([4]; 25 mg/kg): 14%
- Duration in Minutes of at Least 10% Depression ([3]; dose 2.2 mg/kg): 23 min
- Percent Depression of Mean Arterial Blood Pressure ([3]; dose 2.2 mg/kg): -31%
- ED50 [5]: 0.115 µg/kg

Structure (SMILES): CCCC[C@H]1CCC[C@@]1(O)/C=C/[C@H]1CCC(=O)[C@@H]1CCCCCCC(=O)OCC (relative stereo) [Ethyl nat-15S,16S(and ent-15R,16R)-15-hydroxy-9-oxo-15,16-trimethylene-13-trans-prostenoate]
- Duration in Minutes of at Least 10% Depression ([3]; dose 1.6 mg/kg): 5 min
- Percent Depression of Mean Arterial Blood Pressure ([3]; dose 1.6 mg/kg): -43%

Structure (SMILES): CCCCC1CCCC1(O)/C=C/C1CCC(=O)C1CCCCCCC(=O)OCC [Ethyl nat-15S,16R(and ent-15R,16S)-15-hydroxy-9-oxo-15,16-trimethylene-13-trans-prostenoate and Ethyl nat-15R,16S(and ent-15S,16R)-15-hydroxy-9-oxo-15,16-trimethylene-13-trans-prostenoate]
- Duration in Minutes of at Least 10% Depression ([3]; dose 1.9 mg/kg): 7 min
- Percent Depression of Mean Arterial Blood Pressure ([3]; dose 1.9 mg/kg): -18%

Structure (SMILES): CCCC[C@@H]1CCC[C@]1(O)/C=C/[C@H]1CCC(=O)[C@@H]1CCCCCCC(=O)OCC (relative stereo) [Ethyl nat-15R,16R(and ent-15S,16S)-15-hydroxy-9-oxo-15,16-trimethylene-13-trans-prostenoate]
- Duration in Minutes of at Least 10% Depression ([3]; dose 4.0 mg/kg): 4 min
- Percent Depression of Mean Arterial Blood Pressure ([3]; dose 4.0 mg/kg): -16%

Structure (SMILES): O=C(O)CCCCCC[C@H]1C(=O)CC[C@@H]1/C=C/C1=CCCCC1 (relative stereo) [nat(and ent)-9-oxo-15,16-Tetramethylene-17,18,19,20-tetranor-15,13-trans-prostadienoic Acid]
- Inhibition of Platelet Aggregation - In Vitro, Adenosine Diphosphate ([1]; drug concentration 25 μg/ml): (-)
- Inhibition of Platelet Aggregation - In Vitro, Adenosine Diphosphate ([1]; drug concentration 250 μg/ml): (-)
- Inhibition of Platelet Aggregation - In Vitro, Collagen ([2]; drug concentration 25 μg/ml): (-)
- Inhibition of Platelet Aggregation - In Vitro, Collagen ([2]; drug concentration 250 μg/ml): (-)
- Inhibition of Respiratory Depression - In Vivo, Percent Inhibition ([4]; 25 mg/kg): 28%

Structure (SMILES): O=C(O)CCCCCC[C@H]1C(=O)CC[C@@H]1/C=C/C1(O)CCCCC1 (relative stereo) [nat(and ent)-15-Hydroxy-9-oxo-15,16-tetramethylene-17,18,19,20-tetranor-13-trans-prostenoic Acid]
- Inhibition of Platelet Aggregation - In Vitro, Adenosine Diphosphate ([1]; drug concentration 0.25 μg/ml): (+)
- Inhibition of Platelet Aggregation - In Vitro, Adenosine Diphosphate ([1]; drug concentration 2.5 μg/ml): (+)
- Inhibition of Platelet Aggregation - In Vitro, Adenosine Diphosphate ([1]; drug concentration 25 μg/ml): (-)
- Inhibition of Platelet Aggregation - In Vitro, Adenosine Diphosphate ([1]; drug concentration 250 μg/ml): (-)
- Inhibition of Platelet Aggregation - In Vitro, Collagen ([2]; drug concentration 0.25 μg/ml): (+)
- Inhibition of Platelet Aggregation - In Vitro, Collagen ([2]; drug concentration 2.5 μg/ml): (+)
- Inhibition of Platelet Aggregation - In Vitro, Collagen ([2]; drug concentration 25 μg/ml): (-)
- Inhibition of Platelet Aggregation - In Vitro, Collagen ([2]; drug concentration 250 μg/ml): (-)
- Inhibition of Respiratory Depression - In Vivo, Percent Inhibition ([4]; 1 mg/kg): 33%
- Duration in Minutes of at Least 10% Depression ([3]; dose 1.8 mg/kg): 4 min
- Percent Depression of Mean Arterial Blood Pressure ([3]; dose 1.8 mg/kg): -9%

Structure (SMILES): CCCC[C@H]1CCC[C@@]1(O)/C=C/[C@H]1CCC(=O)[C@@H]1CCCCCCC(=O)O (relative stereo) [nat-15S,16S(and ent-15R,16R)-15-Hydroxy-9-oxo-15,16-trimethylene-13-trans-prosenoic Acid]
- ED50 [6]: 0.112 µg/kg
- ED50 [5]: 0.413 µg/kg

Structure (SMILES): O=C(O)CCCCCC[C@H]1C(=O)C[C@@H](O)[C@@H]1/C=C/C1(O)CCCCC1 (relative stereo) [nat(and ent)-11α,15-Dihydroxy-9-oxo-15,16-tetramethylene-17,18,19,20-tetranor-13-trans-prostenoic Acid]
- Inhibition of Platelet Aggregation - In Vitro, Adenosine Diphosphate ([1]; drug concentration 0.25 μg/ml): (+)
- Inhibition of Platelet Aggregation - In Vitro, Adenosine Diphosphate ([1]; drug concentration 2.5 μg/ml): (-)
- Inhibition of Platelet Aggregation - In Vitro, Adenosine Diphosphate ([1]; drug concentration 25 μg/ml): (-)
- Inhibition of Platelet Aggregation - In Vitro, Adenosine Diphosphate ([1]; drug concentration 250 μg/ml): (-)
- Inhibition of Platelet Aggregation - In Vitro, Collagen ([2]; drug concentration 0.25 μg/ml): (+)
- Inhibition of Platelet Aggregation - In Vitro, Collagen ([2]; drug concentration 2.5 μg/ml): (-)
- Inhibition of Platelet Aggregation - In Vitro, Collagen ([2]; drug concentration 25 μg/ml): (-)
- Inhibition of Platelet Aggregation - In Vitro, Collagen ([2]; drug concentration 250 μg/ml): (-)
- Duration in Minutes of at Least 10% Depression ([3]; dose 2.1 mg/kg): 16 min
- Percent Depression of Mean Arterial Blood Pressure ([3]; dose 2.1 mg/kg): -39%

Structure (SMILES): CCCCC1CCCC1(O)/C=C/C1CCC(=O)C1CCCCCCC(=O)O [nat-15S,16R(and ent-15R,16S) and nat-15R,16S(and ent-15S,16R)-15-Hydroxy-9-oxo-15,16-trimethylene-13-trans-prostenoic Acid]
- Duration in Minutes of at Least 10% Depression ([3]; dose 2.0 mg/kg): 4 min
- Percent Depression of Mean Arterial Blood Pressure ([3]; dose 2.0 mg/kg): -38%
- ED50 [6]: 0.32 µg/kg

Structure (SMILES): O=C(O)CCC/C=C\C[C@H]1C(=O)C=C[C@@H]1/C=C/C1(O)CCCCC1 (relative stereo) [nat(and ent)-15-Hydroxy-9-oxo-15,16-tetramethylene-17,18,19,20-tetranor-13-trans,5-cis,10-prostatrienoic acid]
- Inhibition of Platelet Aggregation - In Vitro, Adenosine Diphosphate ([1]; drug concentration 25 μg/ml): (+)
- Inhibition of Platelet Aggregation - In Vitro, Adenosine Diphosphate ([1]; drug concentration 250 μg/ml): (-)
- Inhibition of Platelet Aggregation - In Vitro, Collagen ([2]; drug concentration 25 μg/ml): (+)
- Inhibition of Platelet Aggregation - In Vitro, Collagen ([2]; drug concentration 250 μg/ml): (-)
- ED50 [6]: > 3.2 µg/kg
- ED50 [7]: 0.632 µg/kg
- ED50 [5]: > 3.2 µg/kg

From patent US4197407A, “Prostenoic acids and esters” (American Cyanamid Company, priority 1977, dated 1980)
